Patent publication US20240285670A1, “THERAPEUTIC TREATMENT OF TUMORS BY BLOCKING THE HEME SYNTHESIS-EXPORT AXIS” (Università degli Studi di Torino, priority 2021, published 2024)

Experiments:
SH-SY5Y cells = experiment: TCA cycle flux in SHSY-5Y cells; format: cell-based, human; settings: FLVCR1a-silenced vs scramble shRNA SH-SY5Y cells
Excerpt: (§1) Results were expressed as nmol NAD*/min/mg mitochondrial protein for complex I, nmol reduced cytochrome c/min/mg mitochondrial protein for complexes II-III, nmol oxidized cytochrome c/min/mg mitochondrial protein for complex IV. Data represent mean±SEM, n=3. For statistical analyses, an unpaired Student's t-test was used; *=p<0.05, **=p<0.01, *=p<0.001. […] Results are expressed as nmol/mg mitochondrial proteins. Data represent mean±SEM, n=3. For statistical analyses, an unpaired Student's t-test was used; *=p<0.05. […] Results are expressed as pmol CO2/h/mg protein. Data represent mean±SEM, n=3. For statistical analyses, an unpaired Student's t-test was used; **=p<0.01. […] Results were expressed as nmol NAD*/min/mg mitochondrial protein for complex I, nmol reduced cytochrome c/min/mg mitochondrial protein for complexes II-III, nmol oxidized cytochrome c/min/mg mitochondrial protein for complex IV. […] Results are expressed as nmol/mg mitochondrial proteins. […] Results are expressed as pmol CO2/h/mg protein. […] (H) TCA cycle enzymes activities are reported in boxes and expressed as mU/mg mitochondrial proteins. […] Results were expressed as nmol NAD^+/min/mg mitochondrial protein for complex I, nmol reduced cytochrome c/min/mg mitochondrial protein for complexes II-III, nmol oxidized cytochrome c/min/mg mitochondrial protein for complex IV. […] Results are expressed as nmol/mg mitochondrial proteins. […]

BTECs = experiment: Activity of mitochondrial ETC complexes I-IV in BTECs; format: cell-based, human; settings: FLVCR1a-silenced vs scramble shRNA BTECs
Excerpt: as §1

In the case of “FLVCR1a shRNA: shRNA specifically down-regulating FLVCR1a without targeting FLVCR1b; pLKO.1 lentiviral clone TRCN0000059599, antisense SEQ ID No.: 2 (antisense TTGCTAATGATGCTGTACTGG; sense CCAGTACAGCATCATTAGCAA)”, the TCA cycle flux (SH-SY5Y cells) is reported as “increased TCA cycle flux” and the “activity of ETC complexes” value (BTECs) is reported as “enhanced activity of ETC complexes”.
